From BindingDB's records for doi:10.1111/j.1747-0285.2012.01367.x (Peking University Health Science Center, 2012)

Target: Beta-secretase 1 (Homo sapiens, UniProt P56817)
Experiment: BACE-1 Inhibiiton Assay
Experimental: Beta-Secretase inhibition evaluations were carried out using a fluorescence resonance energy transfer (FRET) assay kit supplied by PanVera (kit P2985).

Chain of Beta-secretase 1 (P56817 whole entry): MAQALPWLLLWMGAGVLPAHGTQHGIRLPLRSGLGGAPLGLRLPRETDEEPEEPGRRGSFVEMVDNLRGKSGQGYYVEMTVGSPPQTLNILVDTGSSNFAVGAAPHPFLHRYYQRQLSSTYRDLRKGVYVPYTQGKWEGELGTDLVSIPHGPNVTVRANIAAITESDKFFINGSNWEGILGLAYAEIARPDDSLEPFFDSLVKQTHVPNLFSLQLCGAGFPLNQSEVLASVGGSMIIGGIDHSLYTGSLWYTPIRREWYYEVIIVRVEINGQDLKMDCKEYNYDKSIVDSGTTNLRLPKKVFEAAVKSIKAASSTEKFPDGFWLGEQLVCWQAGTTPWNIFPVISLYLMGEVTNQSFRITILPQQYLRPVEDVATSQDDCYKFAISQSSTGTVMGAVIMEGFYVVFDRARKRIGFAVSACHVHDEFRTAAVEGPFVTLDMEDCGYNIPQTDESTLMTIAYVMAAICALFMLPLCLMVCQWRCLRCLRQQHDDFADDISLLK

IC50 [nM] | Structure (SMILES)
4760 | COc1ccc(-c2nc(SCC(=O)Nc3nc(-c4ccccc4)cs3)[nH]c(=O)c2C#N)cc1 [B51]
310 | O=C(NCc1ccc2c(c1)OCO2)c1cnc2cc(S(=O)(=O)Nc3cccc(C(F)(F)F)c3)ccc2c1O [B53]
